This is an account of results in patent publication US20050282863A1, “Novel-N substituted dihydrobenzothiepino, dihydrobenzoxepino and tetrahydro benzocyclohepta indoles as selective estrogen receptor modulators” (Council of Scientific & Industrial Research, priority 2004, published 2005).

The structures appear in SMILES notation. Read-outs that look alike come from different tables or passages of the source.

Test [1] relates to immature ovariectomized rats. Put plainly: Estrogen agonistic activity: increase in uterine weight in immature ovariectomized rats. The format is in vivo, rat. The note with it: 3 days, percent of ovariectomized + vehicle group; for change in vivo at 3 mg/kg: daily dose 3 mg/kg.
Test [2] has as its system chick fetal bones in culture. Kind of test: Inhibition in PTH-induced resorption of 45Ca from chick fetal bones in culture (antiresorptive activity in vitro). The format is cell-based. Conditions: Gallus gallus, 96 h, PTH-induced 45Ca resorption, 96 h culture, read-out: T/C ratio. How it is done: 5 μl of each concentration are used for evaluation of antiresorptive activity in vitro. In control experiments, 5 μl of appropriate solvent is used in lieu of the test compound. Femur bones are isolated from chick embryos on day 11 post-ovulation. The adhering soft connective tissue is completely removed. Each femur bone is then placed in a drop of phosphate buffered saline (PBS) and is transferred to BGJb culture medium containing ^45CaCl2 and incubated for 2 h. Labeled femur bones are washed 2-3 times with PBS and transferred to BGJb medium containing parathyroid hormone and cultured for 96 h in the presence or absence of the compound of invention or the vehicle in BGJb medium. Contralateral femur of each fetus serves as corresponding control. Culture medium with the respective treatment in each well is changed after 48 h. On termination of the culture at 96 h, bones are transferred to 0.1 N HCl for 24 h. Radioactivity due to ^45Ca in the spent medium collected at 48 and 96 h of culture and HCl extract at 96 h of culture is quantified by Liquid Scintillation Spectrophotometer in 10 ml of the scintillation fluid. Bone resorbing activity is expressed as percentage of ^45Ca released into the culture medium and the effect of the compound of invention as percent of the corresponding contra-lateral control or T/C ratio as shown below: [formula]
Appropriate solvents are selected from solvents like water, physiological saline, phosphate buffered saline, phosphate buffer, DMSO alone or in a suitable combination thereof.

Test [3] deals with MCF-7 cells. Put plainly: Antiproliferative/cytotoxic activity in cultured MCF-7 cells (SRB assay). The format is cell-based. The note with it: Homo sapiens, MCF7, 48 h, MCF-7, 48 h.
In test [4] the target is T1, estrogen receptors (Rattus norvegicus, UniProt P06211).
T1 construct: Aliquot of uterine cytosol (200 μl; 2 uteri per ml) prepared in TEA buffer; from tissue; host or cells: uterine cytosol of immature estradiol-primed 20-21 day old rats
T1 sequence (P06211 1-600): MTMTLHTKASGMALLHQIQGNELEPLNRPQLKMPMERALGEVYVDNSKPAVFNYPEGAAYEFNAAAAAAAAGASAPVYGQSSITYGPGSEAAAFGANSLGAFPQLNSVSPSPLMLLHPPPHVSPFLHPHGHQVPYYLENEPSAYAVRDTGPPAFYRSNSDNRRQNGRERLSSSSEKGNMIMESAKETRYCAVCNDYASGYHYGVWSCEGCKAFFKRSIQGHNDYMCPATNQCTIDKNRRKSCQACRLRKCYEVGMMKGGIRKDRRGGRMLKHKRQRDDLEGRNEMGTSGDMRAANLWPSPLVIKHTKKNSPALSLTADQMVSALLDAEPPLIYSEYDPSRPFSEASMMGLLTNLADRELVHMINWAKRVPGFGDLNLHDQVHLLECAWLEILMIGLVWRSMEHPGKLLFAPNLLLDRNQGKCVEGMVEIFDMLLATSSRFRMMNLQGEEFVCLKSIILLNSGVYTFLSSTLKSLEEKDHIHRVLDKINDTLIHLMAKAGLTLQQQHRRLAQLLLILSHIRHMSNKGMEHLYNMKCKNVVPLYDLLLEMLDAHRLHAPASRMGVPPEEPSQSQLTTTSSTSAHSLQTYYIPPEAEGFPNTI
Kind of test: Relative binding affinity (RBA) to estrogen receptors, 3H-estradiol competition assay. Conditions: relative to 17-beta-estradiol (=100, percentage value); rat uterine cytosol, 3H-E2, 18 hrs at 4° C. Set-up: key: % of 17-beta-estradiol binding affinity (estradiol = 100). A digest of the protocol: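 Competition against a fixed concentration of ³H-estradiol for cytosolic receptor from uteri of immature (20-21 day) estradiol-primed rats, in TEA buffer pH 7.4 with ≤5% DMF, 18 h at 4° C. Free ligand removed with dextran-coated charcoal; bound radioactivity counted and RBA read from percent-bound vs log concentration plot, expressed as percentage.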

In the case of `CCCCN(C)CCCCCn1c2c(c3ccccc31)CCSc1ccccc1-2` [Example number 13, 12-[5-(N-butylmethylamino)pentyl]-6,7-dihydro-12H-benzothiepino [5,4-b]indole], in test [1] (Rattus norvegicus, 72 h, daily dose 1 mg/kg), the change in vivo at 1 mg/kg amounted to 8%. The change in vivo at 3 mg/kg in test [1] (Rattus norvegicus, 72 h) amounted to 2.53%. Further, the “Percent increase in uterine weight” value in test [1] (daily dose 10 mg/kg) is 126.00%. In addition, in test [2] (25 μM), the activity at 25 µM is 33%. Also, the activity at 50 µM in test [2] (50 μM) came to 41%. For the same molecule, the activity at 200 µM in test [2] (200 μM) is 61%. Also, in test [3] (read-out: LC50, Test-1), the CC50 is 24 µM. In addition, the RBA in test [4] was less than 0.001.

Regarding `c1ccc2c(c1)SCCc1c-2n(CCCCCCN2CCCCC2)c2ccccc12` [Example number 18, 12-[6-(Piperidine-1-yl)hexyl]-6,7-dihydro-12H-benzothiepino [5,4-b]indole], the change in vivo at 3 mg/kg in test [1] (Rattus norvegicus, 72 h) came out at 1.76%. Also, the change in vivo at 10 mg/kg in test [1] (Rattus norvegicus, 72 h, daily dose 10 mg/kg) amounted to 51%. For the same molecule, in test [2] (100 μM), the activity at 100 µM was found to be 160%. In addition, the CC50 was found to be 18.2 µM in test [3] (read-out: LC50, Test-1) and 9.63 µM in test [3] (read-out: LC50, Test-3). In test [4], the RBA was found to be 0.17.
